Consider 7 molecules from US20110038885A1, “CHEMOKINE ANALOGS” (priority 2007, published 2011).

As a reminder, the EC50 is the concentration that produces a half-maximal response.

Bridge positions count the residues as written; N and C are the ends. Square brackets hold non-standard residues; d marks the D form. Peptide text beside a SMILES is read from it. * marks the point of attachment. d(pGlu) = O=C1CC[C@H](C(=O)O)N1; Octanoyl = CCCCCCCC(=O)*; Aoc = NCCCCCCCC(=O)O

The nature of one series: Half-life in rat in vivo. To be noted: for half-life: read-out: T ½ rat in vivo.
Another series has as its system MCP-1. As to the kind of experiment: In vitro chemotaxis (trans-well migration) v MCP-1. The series is classed as cell-based, human. In short, it runs like this: (§1)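 Trans-well migration toward IL-8 or MCP-1 placed below, with agent added to THP-1 cells (10^4-10^6) in the top well and incubation at 37° C (e.g. 4 hours). MTT absorbance at 595 nm, interpolated on a cell standard curve, gives migrated cell numbers; TGFβ-type negative control and cytotoxicity check included.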

The test system of the next series is IL-8. In words: In vitro chemotaxis, inhibition v IL-8. The series is classed as cell-based, human. More on the design: concentration or dose not given beside the values. In short, it runs like this: as §1

Turning to `CC[C@H](C)[C@@H]1NC(=O)[C@H](Cc2c[nH]c3ccccc23)NC(=O)[C@H](CCCCN)NC(=O)[C@@H](NC(=O)[C@H](CCC(N)=O)NC(C)=O)CSSC[C@@H](C(N)=O)NC(=O)[C@H](CCC(N)=O)NC1=O` [Example 54, Ac-Gln-c(Cys-Lys-Trp-Ile-Gln-Cys)-NH2] (Ac-QCKWIQC-NH2; disulfide 2-7), in “Half-life in rat in vivo”, the “T ½ rat in vivo” value was 20.9 min and the half-life amounted to 30.3 min. The 50% effective concentration (EC50) in the series on MCP-1 is 10 nM.
Turning to `CC[C@H](C)[C@@H]1NC(=O)[C@H](Cc2c[nH]c3ccccc23)NC(=O)[C@H](CCCCN)NC(=O)[C@@H](NC(=O)[C@H]2CCC(=O)N2)CSSC[C@@H](C(N)=O)NC(=O)[C@H](CCC(N)=O)NC1=O` [Example 53, DpGlu-c(Cys-Lys-Trp-Ile-Gln-Cys)-NH2] ([d(pGlu)]CKWIQC-NH2; disulfide 2-7), in “Half-life in rat in vivo”, the “T ½ rat in vivo” value was 23.1 min and the half-life was 19.4 min. This molecule also showed an EC50 in the series on MCP-1 of 6 nM.
For `CC[C@H](C)[C@@H]1NC(=O)[C@H](Cc2c[nH]c3ccccc23)NC(=O)[C@H](CCCCN)NC(=O)[C@@H](NC(C)=O)CSSC[C@@H](C(N)=O)NC(=O)[C@H](CCC(N)=O)NC1=O` [Example 55, Ac-c(Cys-Lys-Trp-Ile-Gln-Cys)-NH2] (Ac-CKWIQC-NH2; disulfide 1-6), in that order: 16.5 min, 18 min and 6 nM.
With `CC[C@@H](C)[C@H]1NC(=O)[C@@H](CCC(N)=O)NC(=O)[C@H](N)CSSC[C@H](C(=O)N[C@H](C(=O)N[C@@H](CCC(=O)O)C(=O)NCCCCCCCC(=O)O)[C@@H](C)CC)NC(=O)[C@@H](CC(C)C)NC(=O)[C@@H](CC(=O)O)NC(=O)[C@H]2CCCN2C(=O)[C@@H](CCCCN)NC(=O)[C@@H](CCC(N)=O)NC(=O)[C@@H](CCCCN)NC(=O)[C@@H](Cc2c[nH]c3ccccc23)NC1=O` [Example 140, c(D-Cys-D-Gln-D-Ile-D-Trp-D-Lys-D-Gln-D-Lys-D-Pro-D-Asp-D-Leu-D-Cys)-Ile-Glu-Aoc-OH] (H-[dC][dQ][dI][dW][dK][dQ][dK][dP][dD][dL][dC]IE[Aoc]-OH; disulfide 1-11), in the series with IL-8, the “v IL-8 inhibition (%)” value is 43.4%. Besides, in the series with MCP-1, the EC50 was determined as 400 nM.
Regarding `CC[C@H](C)[C@@H]1NC(=O)[C@H](Cc2c[nH]c3ccccc23)NC(=O)[C@H](CCCCN)NC(=O)[C@@H](NC(=O)[C@H](CCC(N)=O)NC(=O)[C@H](CCCCN)NC(=O)[C@@H]2CCCN2)CSSC[C@@H](C(N)=O)NC(=O)[C@H](CCC(N)=O)NC1=O` [Example 45, Pro-Lys-Gln-c(Cys-Lys-Trp-Ile-Gln-Cys)-NH2] (H-PKQCKWIQC-NH2; disulfide 4-9), the “v IL-8 inhibition (%)” value with IL-8 is reported as 74.2%. Besides, the EC50 in the series with MCP-1 was 150 nM.
In the same order, the values of `CC[C@@H](C)[C@H]1NC(=O)[C@H](Cc2c[nH]c3ccccc23)NC(=O)[C@H](CCCCN)NC(=O)[C@H](CCC(N)=O)NC(=O)[C@H](CCCCN)NC(=O)[C@@H]2CCCN2C(=O)[C@H](CC(=O)O)NC(=O)[C@H](CC(C)C)NC(=O)[C@@H](NC(C)=O)CSSC[C@@H](C(N)=O)NC(=O)[C@H](CCC(N)=O)NC1=O` [Example 25, Ac-c(Cys-Leu-Asp-Pro-Lys-Gln-Lys-Trp-D-Ile-Gln-Cys)-NH2] (Ac-CLDPKQKW[dI]QC-NH2; disulfide 1-11) are 96.9% and 30 nM.
In the same order, the values of `CCCCCCCC(=O)NCCCC[C@H](NC(=O)[C@@H](CC(=O)O)NC(=O)[C@H]1CSSC[C@@H](N)C(=O)N[C@H](CCC(N)=O)C(=O)N[C@H]([C@H](C)CC)C(=O)N[C@H](Cc2c[nH]c3ccccc23)C(=O)N[C@H](CCCCN)C(=O)N[C@H](CCC(N)=O)C(=O)N[C@H](CCCCN)C(=O)N2CCC[C@@H]2C(=O)N[C@H](CC(=O)O)C(=O)N[C@H](CC(C)C)C(=O)N1)C(=O)O` [Example 147, c(D-Cys-D-Gln-D-Ile-D-Trp-D-Lys-D-Gln-D-Lys-D-Pro-D-Asp-D-Leu-D-Cys)-D-Asp-Lys(Nε-octanoyl)-OH] (H-[dC][dQ][dI][dW][dK][dQ][dK][dP][dD][dL][dC][dD]K(Octanoyl)-OH; disulfide 1-11) are 29.0% and 500 nM.
